Measured values reported in patent publication US4015974A, “Amido phosphorothiolates” (priority 1972, dated 1977).

How the values were obtained:
Type in all cases: in vivo
[1] = test system: barnyard grass (Echinochloa crus-galli); assay: Water application, herbicidal effect on barnyard grass (Table 2); parameters: key: 0: not damaged; 5: completely killed; conditions: 25 days, score 0-5
In short: (§1)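 Paddy-soil pots flooded to paddy conditions; rice transplanted at 3-leaf stage, barnyard grass sown, broad-leaved weeds germinating spontaneously. Test compounds applied as wettable powder to soil under flooded water. Herbicidal effect and rice phytotoxicity scored 0–5 at 25 days after application.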

[2] = test system: common purslane (Portulaca oleracea); assay: Pre-emergence application, herbicidal effect on common purslane (Table 1); parameters: key: 0: not damaged; 5: completely killed; conditions: 20 days after application, score 0-5
In short: (§2)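 Soil treatment after sowing, pre-emergence; wettable powder formulations diluted with water. Greenhouse, 20 d. Score 0 = no damage, 5 = complete kill.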

[3] = test system: redroot pigweed (Amaranthus retroflexus); assay: Pre-emergence application, herbicidal effect on redroot pigweed (Table 1); parameters: key: 0: not damaged; 5: completely killed; conditions: 20 days after application, score 0-5
In short: as §2

[4] = test system: barnyard grass (Echinochloa crus-galli); assay: Pre-emergence application, herbicidal effect on barnyard grass (Table 1); parameters: key: 0: not damaged; 5: completely killed; conditions: 20 days after application, score 0-5
In short: as §2

[5] = test system: common lambsquarter (Chenopodium album); assay: Pre-emergence application, herbicidal effect on common lambsquarter (Table 1); parameters: key: 0: not damaged; 5: completely killed; conditions: 20 days after application, score 0-5
In short: as §2

[6] = test system: rice; assay: Water application, phytotoxicity on rice (Table 2); parameters: key: 0: no effect; 1: very slightly affected; 2: slightly affected; 3: moderately affected; 4: considerably affected; 5: completely killed; conditions: 25 days, score 0-5
In short: as §1

[7] = test system: radish; assay: Pre-emergence application, herbicidal effect on radish (Table 1); parameters: key: 0: not damaged; 5: completely killed; conditions: 20 days after application, score 0-5
In short: as §2

[8] = test system: broad-leaved weeds, e.g., monochoria, false pimpernel and toothcup; assay: Water application, herbicidal effect on broad-leaved weeds (Table 2); parameters: key: 0: not damaged; 5: completely killed; conditions: 25 days, score 0-5
In short: as §1

[9] = test system: tobacco cut worm (Spondoptera litura); assay: Lethal effect on tobacco cut worm (Table 5); conditions: tobacco cutworm, larvae on chinese cabbage leaves, 48 h
Description: The present compounds of an emulsifiable concentrate type were applied to leaves of chinese cabbage in the form of an 1000 fold dilute solution. After air-drying, third to fourth instar larvae of tobacco cut worm were released and after 48 hours the death and alive were observed.

[10] = test system: large crabgrass (Digitaria sanguinalis); assay: Pre-emergence application, herbicidal effect on large crabgrass (Table 1); parameters: key: 0: not damaged; 5: completely killed; conditions: 20 days after application, score 0-5
In short: as §2

[11] = test system: barnyard grass (Echinochloa crus-galli); assay: Water application, herbicidal effect on barnyard grass (Table 2); parameters: key: 0: no effect; 1: very slightly affected; 2: slightly affected; 3: moderately affected; 4: considerably affected; 5: completely killed; conditions: 25 days, score 0-5
Excerpt: Wagner pots of 14 cm. in diameter, which had been packed with 1.5 kg. of paddy field soil, were brought into the state of paddy fields. To the pots were transplanted rice seedlings at the 3-leave stage. Further, seeds of barnyard grass (Echinochloa crus-galli) were sowed in the pots and required amounts of test compounds were applied to the soil under water lodged condition. 25 days after application, the degrees of herbicidal activity and phytotoxity were investigated on above-mentioned plants which had been transplanted and sowed, and on broad-leaved weeds, e.g., monochoria (Monochoria viaginalis Presl.), false pimpernel (Linderna pyxidaria) and toothcup (Rotala indica Koehue), which had been spontaneously germinated. The test compounds were used in the form of wettable powder. The herbicidal effects and the phytotoxity were evaluated as follows by the numerals ranging from 0 to 5.

[12] = test system: nematode; assay: Effect on nematode (Table 7); parameters: tested at 500 ppm; conditions: 500 p.p.m., 24 hours
Description: 0.5 ml. of a nematode-containing aqueous solution separated from food according to Baermann's method was placed in a test tube with ground stopper containing 0.5 ml. of an aqueous dilute solution of each emulsifiable concentrates of the present compounds. The concentration of the active ingredient in the mixture was adjusted to 500 p.p.m. After 24 hours, the death and alive were observed microscopically to calculate the mortality.

[13] = test system: broad-leaved weeds, e.g., monochoria, false pimpernel and toothcup; assay: Water application, herbicidal effect on broad-leaved weeds (Table 2); parameters: key: 0: no effect; 1: very slightly affected; 2: slightly affected; 3: moderately affected; 4: considerably affected; 5: completely killed; conditions: 25 days, score 0-5
In short: as §1

Row | SMILES | Herbicidal effects, barnyard grass ([1]; 20 g/a) | Herbicidal effects, barnyard grass ([1]; 40 g/a) | Herbicidal effect, common purslane ([2]; 10 g./a.) | Herbicidal effect, common purslane ([2]; 20 g./a.) | Herbicidal effect, common purslane ([2]; 40 g./a.) | Herbicidal effect, redroot pigweed ([3]; 10 g./a.) | Herbicidal effect, redroot pigweed ([3]; 20 g./a.) | Herbicidal effect, redroot pigweed ([3]; 40 g./a.) | Herbicidal effect, barnyard grass ([4]; 10 g./a.) | Herbicidal effect, barnyard grass ([4]; 20 g./a.) | Herbicidal effect, barnyard grass ([4]; 40 g./a.) | Herbicidal effect, common lambsquarter ([5]; 10 g./a.) | Herbicidal effect, common lambsquarter ([5]; 20 g./a.) | Herbicidal effect, common lambsquarter ([5]; 40 g./a.) | Phytotoxicity on rice ([6]; 20 g/a) | Phytotoxicity on rice ([6]; 40 g/a) | Herbicidal effect, radish ([7]; 20 g./a.) | Herbicidal effect, radish ([7]; 40 g./a.) | Herbicidal effect, large crabgrass ([10]; 20 g./a.) | Herbicidal effect, large crabgrass ([10]; 40 g./a.) | further results
1 | CCCSP(=O)(OCC)SCC(=O)N1CCCC(C)C1 (stereo not shown) [Compound 13] | 5 | 5 | 4 | 5 | 5 | 4 | 5 | 5 | 5 | 5 | 5 | 4 | 5 | 5 | 0 | 0 | 0 | 0 | 5 | 5 | Herbicidal effects, barnyard grass ([1]; 10 g/a): 5; Phytotoxicity on rice ([6]; 10 g/a): 0; Herbicidal effect, radish ([7]; 10 g./a.): 0; Herbicidal effects, broad-leaved weeds ([8]; 10 g/a): 5; Herbicidal effects, broad-leaved weeds ([8]; 20 g/a): 5; Herbicidal effects, broad-leaved weeds ([8]; 40 g/a): 5; Mortality [9]: 73.3%; Herbicidal effect, large crabgrass ([10]; 10 g./a.): 5
2 | Oc1c(Cl)c(Cl)c(Cl)c(Cl)c1Cl [PCP, reference compound] |  |  |  |  |  |  |  |  |  |  |  |  |  |  |  |  |  |  |  |  | Herbicidal effects, barnyard grass ([1]; 100 g/a): 5; Herbicidal effect, common purslane ([2]; 50 g./a.): 2; Herbicidal effect, common purslane ([2]; 100 g./a.): 4; Herbicidal effect, redroot pigweed ([3]; 50 g./a.): 2; Herbicidal effect, redroot pigweed ([3]; 100 g./a.): 4; Herbicidal effect, barnyard grass ([4]; 50 g./a.): 2; Herbicidal effect, barnyard grass ([4]; 100 g./a.): 3; Herbicidal effect, common lambsquarter ([5]; 50 g./a.): 2; Herbicidal effect, common lambsquarter ([5]; 100 g./a.): 4; Herbicidal effects, barnyard grass ([11]; 50 g/a): 4; Phytotoxicity on rice ([6]; 50 g/a): 2; Phytotoxicity on rice ([6]; 100 g/a): 3; Herbicidal effect, radish ([7]; 50 g./a.): 1; Herbicidal effect, radish ([7]; 100 g./a.): 4; Herbicidal effects, broad-leaved weeds ([8]; 50 g/a): 5; Herbicidal effects, broad-leaved weeds ([8]; 100 g/a): 5; Herbicidal effect, large crabgrass ([10]; 50 g./a.): 2; Herbicidal effect, large crabgrass ([10]; 100 g./a.): 4
3 | CCOP(=O)(SCCCC(C)C)SCC(=O)N1CCCCC1CC (stereo not shown) [Compound 80] | 5 | 5 | 3 | 4 | 5 | 3 | 4 | 5 | 4 | 5 | 5 | 3 | 4 | 5 | 0 | 2 | 0 | 0 | 5 | 5 | Herbicidal effects, barnyard grass ([11]; 10 g/a): 4; Phytotoxicity on rice ([6]; 10 g/a): 0; Herbicidal effect, radish ([7]; 10 g./a.): 0; Herbicidal effects, broad-leaved weeds ([8]; 10 g/a): 5; Herbicidal effects, broad-leaved weeds ([8]; 20 g/a): 5; Herbicidal effects, broad-leaved weeds ([8]; 40 g/a): 5; Herbicidal effect, large crabgrass ([10]; 10 g./a.): 5
4 | CCOP(=O)(SCC(=O)N1CCCCC1CC)SCc1ccc(CC)cc1 (stereo not shown) [Compound 58] | 5 | 5 | 3 | 4 | 5 | 3 | 4 | 5 | 4 | 5 | 5 | 3 | 4 | 4 | 0 | 0 | 0 | 0 | 5 | 5 | Herbicidal effects, barnyard grass ([1]; 10 g/a): 5; Phytotoxicity on rice ([6]; 10 g/a): 0; Herbicidal effect, radish ([7]; 10 g./a.): 0; Herbicidal effects, broad-leaved weeds ([8]; 10 g/a): 5; Herbicidal effects, broad-leaved weeds ([8]; 20 g/a): 5; Herbicidal effects, broad-leaved weeds ([8]; 40 g/a): 5; Mortality [9]: 72.0%; Herbicidal effect, large crabgrass ([10]; 10 g./a.): 5
5 | CCOP(=O)(SCC(=O)N1CCCCC1C)SCc1ccc(C(C)(C)C)cc1 (stereo not shown) [Compound 50] | 5 | 5 | 5 | 5 | 5 | 5 | 5 | 5 | 5 | 5 | 5 | 5 | 5 | 5 | 0 | 1 | 1 | 2 | 5 | 5 | Herbicidal effects, barnyard grass ([1]; 10 g/a): 5; Mortality [12]: 100%; Phytotoxicity on rice ([6]; 10 g/a): 0; Herbicidal effect, radish ([7]; 10 g./a.): 0; Herbicidal effects, broad-leaved weeds ([8]; 10 g/a): 5; Herbicidal effects, broad-leaved weeds ([8]; 20 g/a): 5; Herbicidal effects, broad-leaved weeds ([8]; 40 g/a): 5; Mortality [9]: 81.2%; Herbicidal effect, large crabgrass ([10]; 10 g./a.): 5
6 | CCOP(=O)(SCC(=O)N1CCCCC1C)SCC(C)c1ccccc1 (stereo not shown) [Compound 65] | 5 | 5 | 4 | 4 | 5 | 4 | 4 | 5 | 5 | 5 | 5 | 4 | 4 | 5 | 0 | 0 | 0 | 0 | 5 | 5 | Herbicidal effects, barnyard grass ([11]; 10 g/a): 4; Phytotoxicity on rice ([6]; 10 g/a): 0; Herbicidal effect, radish ([7]; 10 g./a.): 0; Herbicidal effects, broad-leaved weeds ([8]; 10 g/a): 5; Herbicidal effects, broad-leaved weeds ([8]; 20 g/a): 5; Herbicidal effects, broad-leaved weeds ([8]; 40 g/a): 5; Herbicidal effect, large crabgrass ([10]; 10 g./a.): 5
7 | COP(=S)(NC(C)C)Oc1ccc(Cl)cc1Cl (stereo not shown) [Zytron, reference compound] |  |  |  | 1 | 2 |  | 0 | 1 |  | 3 | 4 |  | 0 | 2 | 0 | 0 | 0 | 0 | 1 | 3 | Herbicidal effects, barnyard grass ([11]; 20 g/a): 1; Herbicidal effects, barnyard grass ([11]; 40 g/a): 3; Herbicidal effects, broad-leaved weeds ([13]; 20 g/a): 2; Herbicidal effects, broad-leaved weeds ([13]; 40 g/a): 3
